Assay results published in US6391595B1, “Transferase and amylase, process for producing the enzymes, use thereof, and gene coding for the same” (Kirin Beer Kabushiki Kaisha, priority 1994, dated 2002).

How the values were obtained:
[1] = test system: transferase derived from the Sulfolobus solfataricus strain KM1; assay: Substrate specificity of the transferase (production of α-1,α-1-transferred isomer); type: biochemical
Experimental: It was investigated whether or not the present enzyme acts on each of the substrates listed in Table 9 below to produce its α-1,α-1-transferred isomer. Here, the activity measurement was performed in the same manner as in Example I-1.

[2] = biological target: T1, recombinant novel amylase (Saccharolobus solfataricus, UniProt Q55088); assay: Substrate specificity of the recombinant novel amylase (crude enzyme solution); conditions: for Liberated oligosaccharide / Production rate of mono- and disaccharides: 35.2 Units/ml crude enzyme solution, 10 mM substrate (amylopectin and soluble starch 3.0%); for Production rate of mono- and disaccharides: 1 Unit = 1 μmol per hour
T1 sequence (Q55088 1-559): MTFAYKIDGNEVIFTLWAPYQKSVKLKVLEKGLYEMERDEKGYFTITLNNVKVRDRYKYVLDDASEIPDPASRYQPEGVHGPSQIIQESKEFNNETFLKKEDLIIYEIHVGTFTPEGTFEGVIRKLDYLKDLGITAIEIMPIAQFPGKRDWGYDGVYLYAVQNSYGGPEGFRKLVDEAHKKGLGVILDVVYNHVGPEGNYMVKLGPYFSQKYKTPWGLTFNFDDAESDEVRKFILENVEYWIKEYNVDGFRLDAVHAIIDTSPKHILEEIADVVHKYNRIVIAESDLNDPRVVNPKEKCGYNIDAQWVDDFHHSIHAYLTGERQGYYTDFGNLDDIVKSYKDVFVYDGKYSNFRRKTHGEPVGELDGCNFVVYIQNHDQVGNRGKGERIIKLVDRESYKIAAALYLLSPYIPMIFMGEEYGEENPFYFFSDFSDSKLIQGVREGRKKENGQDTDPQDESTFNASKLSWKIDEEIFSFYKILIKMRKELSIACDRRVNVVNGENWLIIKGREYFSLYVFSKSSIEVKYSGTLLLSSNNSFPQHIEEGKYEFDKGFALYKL

[3] = biological target: T2, amylase derived from the Sulfolobus solfataricus strain KM1 (Saccharolobus solfataricus, UniProt Q55088); assay: Substrate specificity of the purified amylase (hydrolyzing properties, TSK-gel Amide-80 HPLC); type: biochemical; conditions: for Liberated oligosaccharide / Production rate of mono- and disaccharides: 25.0 Units/ml enzyme, 10 mM substrate (amylopectin and soluble starch 2.8%); for Production rate of mono- and disaccharides: 1 Unit = 1 μmol per hour
T2 construct: endogenous in cells; host or cells: Sulfolobus solfataricus strain KM1 cells
T2 sequence (Q55088 1-559): T1 sequence (Q55088 1-559)
Experimental: The hydrolyzing properties were analyzed by allowing 25.0 Units/ml (in terms of the enzymatic activity when maltotriosyltrehalose is used as the substrate) of the present purified enzyme to act on the various 10 mM substrates (except amylopectin and soluble starch were used as 2.8% solutions) listed in Table 16 below, and the hydrolyzed products were also analyzed.
Incidentally, each enzymatic activity in Table 16 is expressed with such a unit as 1 Unit equals the activity of liberating 1 μmol of each of the monosaccharide and disaccharide per hour.

[4] = test system: amylase derived from the Sulfolobus solfataricus strain DSM 5833; assay: Inhibitor of amylase (maltotriosyltrehalose-hydrolyzing activity); type: biochemical; conditions: 5 mM CuSO4
Experimental: (§1) The influence of each substance listed in Table 15, such as an activating effect or inhibitory effect, was evaluated using similar activity-measuring method to that in Example II-1. Specifically, the listed substances were individually added together with the substrate to the same reaction system as that in the method for measuring maltotriosyltrehalose-hydrolyzing activity employed in Example II-1. […] As to the inhibitory effect by SDS, however, the enzymatic activity revived after SDS was removed by dialysis, ultrafiltration or the like.
(§2) Additionally, each of the purified enzymes obtained in Examples II-3 and II-4, i.e. derived from the Sulfolobus solfataricus strain DSM 5833 and the Sulfolobus acidocaldarius strain ATCC 33909, respectively, was also examined for the enzymatic characteristics in a similar manner.

[5] = test system: amylase derived from the Sulfolobus acidocaldarius strain ATCC 33909; assay: as above; type: biochemical; conditions: 5 mM CuSO4
Experimental: as §1, §2

[6] = test system: transferase derived from the Sulfolobus acidocaldarius strain ATCC 33909; assay: Inhibitor of transferase (glucosyltrehalose-producing activity); type: biochemical; conditions: 5 mM CuSO4
Experimental: (§3) The influence of each substance listed in Table 8, such as an activating effect or inhibitory effect, was evaluated using similar activity-measuring method to that in Example I-1. Specifically, the listed substances were individually added together with the substrate to the same reaction system as that in the method for measuring glucosyltrehalose-producing activity employed in Example I-1.
(§4) Incidentally, each of the purified enzymes which were obtained in Examples I-3-I-5 and derived from the Sulfolobus solfataricus strain DSM 5833, the Sulfolobus acidocaldarius strain ATCC 33909, and the Acidianus brierleyi strain DSM 1651, respectively, was examined for enzymatic characteristics by using similar manner.

[7] = test system: transferase derived from the Sulfolobus solfataricus strain DSM 5833; assay: as above; type: biochemical; conditions: 5 mM CuSO4
Experimental: as §3, §4

[8] = test system: transferase derived from the Acidianus brierleyi strain DSM 1651; assay: as above; type: biochemical; conditions: 5 mM CuSO4
Experimental: as §3, §4

[9] = test system: transferase derived from the Sulfolobus solfataricus strain KM1; assay: Influence of activators and inhibitors on glucosyltrehalose-producing activity; type: biochemical
[10] = biological target: T2, amylase derived from the Sulfolobus solfataricus strain KM1; assay: biochemical; type: biochemical
[11] = test system: debranching enzyme derived from the Sulfolobus solfataricus strain KM1; assay: Influence of activators and inhibitors on debranching enzyme activity; type: biochemical

| SMILES | Action of the enzyme on the substrate [1] | Action of the enzyme on the substrate [2] | Liberated oligosaccharide [2] | Production rate of mono- and disaccharides [2] | Action of the enzyme on the substrate [3] | Liberated oligosaccharide [3] | Production rate of mono- and disaccharides [3] | Inhibitor, inhibited [4] | Inhibitor, inhibited [5] | Inhibitor, inhibited [6] | Inhibitor, inhibited [7] | Inhibitor, inhibited [8] | Inhibitor, inhibited ([9]; 5 mM CuSO4) | Residual activity ([9]; Concentration 5 mM) | Activating or inhibitory effect ([9]; added with the substrate) | Inhibitor, inhibited ([10]; 5 mM CuSO4) | Residual activity ([10]; Concentration 5 mM) | Activating or inhibitory effect ([10]; added with the substrate) | Residual activity ([11]; Concentration 5 mM) | Activating or inhibitory effect ([11]; added with the substrate) |
| --- | --- | --- | --- | --- | --- | --- | --- | --- | --- | --- | --- | --- | --- | --- | --- | --- | --- | --- | --- | --- |
| OC[C@H]1O[C@H](OC[C@H]2O[C@H](OC[C@H]3O[C@H](OC[C@H]4O[C@H](OC[C@H]5OC(O)[C@H](O)[C@@H](O)[C@@H]5O)[C@H](O)[C@@H](O)[C@@H]4O)[C@H](O)[C@@H](O)[C@@H]3O)[C@H](O)[C@@H](O)[C@@H]2O)[C@H](O)[C@@H](O)[C@@H]1O (stereo partly shown) [Isomaltopentaose] | did not act | did not act | not decomposed | 0 units/ml | did not act | not decomposed | 0 units/ml |  |  |  |  |  |  |  |  |  |  |  |  |  |
| OC[C@H]1O[C@H](OC[C@H]2O[C@H](O[C@H]3[C@H](O)[C@@H](O)C(O)O[C@@H]3CO)[C@H](O)[C@@H](O)[C@@H]2O)[C@H](O)[C@@H](O)[C@@H]1O (stereo partly shown) [Panose] | did not act | did not act | not decomposed | 0 units/ml | did not act | not decomposed | 0 units/ml |  |  |  |  |  |  |  |  |  |  |  |  |  |
| OC[C@H]1O[C@H](OC[C@H]2O[C@H](OC[C@H]3O[C@H](OC[C@H]4OC(O)[C@H](O)[C@@H](O)[C@@H]4O)[C@H](O)[C@@H](O)[C@@H]3O)[C@H](O)[C@@H](O)[C@@H]2O)[C@H](O)[C@@H](O)[C@@H]1O (stereo partly shown) [Isomaltotetraose] | did not act | did not act | not decomposed | 0 units/ml | did not act | not decomposed | 0 units/ml |  |  |  |  |  |  |  |  |  |  |  |  |  |
| O=S(=O)([O-])[O-].[Cu+2] [CuSO4] |  |  |  |  |  |  |  | 100% inhibited | 100% inhibited | 100% inhibited | 100% inhibited | 100% inhibited | 100% inhibited | 0.0% | inhibitory effects | 100% inhibited | 0% | inhibitory effects | 0.0% | inhibitory effects |
